Series [1] has as its system MCF-10A cells. The series can be described thus: Cell viability (cytotoxicity) MTT assay in non-tumorigenic MCF-10A cells. It counts as cell-based, human. The conditions noted are these: 50 µM, 4 days.
Series [2] deals with A-549 human lung carcinoma cell line. The series is described as follows: Antiproliferative assay, A-549. To be noted: read-out: Antiproliferative Activity IC50 ± SEM, A-549; mean ± SEM.
Protocol: (§1) For a rigorous assessment, the widely accepted MTT assay [63, 64] was employed. Using Doxorubicin, a well-established drug, as the reference standard ensures a benchmark for the synthesized compounds, allowing a contextual understanding of their efficacy.
(§2) The MTT assay [63, 64] was employed for this assessment, with Doxorubicin as the reference drug.
(§3) 24h followed by the addition of synthesized compounds (in 200 μL medium to yield a final concentration of 0.1% (v/v) dimethyl sulfoxide) into individual wells of the plates. Four wells were designated to a single compound. The plates were allowed to incubate at 37°C for 96 h. After wards, the medium was aspirated and 3-[4,5-dimethylthiazol-2-yl]-2,5-diphenyltetrazolium bromide (MTT) (0.4 mg/mL) in medium was added to each well and subsequently incubated for 3 h. The medium was aspirated and 150 μL dimethyl sulfoxide (DMSO) was added to each well.
(§4) The plates were vortexed followed by the measurement of absorbance at 540 nm on a microplate
Series [3] deals with MCF-7 human breast adenocarcinoma cell line. The series can be described thus: Antiproliferative assay, MCF-7. To be noted: read-out: Antiproliferative Activity IC50 ± SEM, MCF-7; mean ± SEM.
Protocol: as §1, §2, §3, §4
The test system of series [4] is HT-29 human colon cancer cell line. The series can be described thus: Antiproliferative assay, HT-29. The conditions noted are these: read-out: Antiproliferative Activity IC50 ± SEM, HT-29; mean ± SEM.
Protocol: as §1, §2, §3, §4
In series [5] the test system is Panc-1 human pancreatic cancer cell line. The series can be described thus: Antiproliferative assay, Panc-1. The conditions noted are these: read-out: Antiproliferative Activity IC50 ± SEM, Panc-1; mean ± SEM.
Protocol: as §1, §2, §3, §4
Series [6] has as its system four cancer cell lines (A-549, MCF-7, Panc-1, HT-29). The series can be described thus: Antiproliferative assay, average over four cancer cell lines (GI50). The conditions noted are these: read-out: Average IC50 (GI50); average of IC50 against four cancer cell lines.
Protocol: as §1, §2, §3, §4
Series [7] has as its system BRAF^V600E. To be noted: cited from earlier work.
In series [8] the test system is cancer cell proliferation. To be noted: cited from earlier work.
Series [9] concerns the target EGFR (Homo sapiens, UniProt P00533). Set-up: acids645–1186; His6 (N); made in house; host or cells: Sf-9 insect cells (baculovirus; pBlueBacHis2B / pFASTBacHTc). The conditions noted are these: cited from earlier work.

EGFR, sequence (P00533 669-1210): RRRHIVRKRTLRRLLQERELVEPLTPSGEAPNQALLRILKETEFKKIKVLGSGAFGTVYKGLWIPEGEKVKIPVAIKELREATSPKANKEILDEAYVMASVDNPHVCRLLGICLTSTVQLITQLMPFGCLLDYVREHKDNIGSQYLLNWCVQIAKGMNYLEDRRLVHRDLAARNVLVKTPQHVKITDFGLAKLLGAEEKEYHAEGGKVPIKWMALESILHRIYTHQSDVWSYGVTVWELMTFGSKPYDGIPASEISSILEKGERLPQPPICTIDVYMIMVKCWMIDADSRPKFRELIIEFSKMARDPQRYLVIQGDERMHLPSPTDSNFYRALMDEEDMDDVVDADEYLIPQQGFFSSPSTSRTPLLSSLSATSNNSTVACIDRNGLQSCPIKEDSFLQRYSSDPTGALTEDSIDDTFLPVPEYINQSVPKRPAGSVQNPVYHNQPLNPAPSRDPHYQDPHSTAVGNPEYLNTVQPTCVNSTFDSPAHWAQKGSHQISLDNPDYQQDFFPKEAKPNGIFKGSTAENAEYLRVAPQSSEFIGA

Consider “2-((3-Allyl-4-oxo-3,4-dihydroquinazolin-2-yl)thio)-N-(4-(4-(4-bromophenyl)-4-cyano-6-oxo-1,6-dihydropyridin-2-yl)phenyl)acetamide [Compound 20]”, for which the “Cell Viability %” value in series [1] amounted to 91%. For the same compound, the 50% inhibitory concentration (IC50) in series [2] was determined as 2000 ± 100 nM; in [3], 1800 ± 100 nM; in series [4], 2100 ± 100 nM; in [5], 2100 ± 100 nM; in series [6] it was 2000 nM.
Take `COc1ccc(-c2cc(-c3ccc(OC)c(OC)c3)n(CC(=O)Nc3ccc(C4=NNC(c5ccc(OC)c(OC)c5)C4)cc3)c(=O)c2C#N)cc1OC` (stereo not drawn) [III]: the IC50 in series [7] was 65 nM. Moreover, the concentration for 50% growth inhibition (GI50) in [8] was 25 nM.
Regarding `C=CCn1c(SCC(=O)Nc2cccc(C(=O)/C=C/c3ccc(OC)cc3)c2)nc2ccccc2c1=O` [II], the results for the half-maximal inhibitory concentration (IC50) in series [7] and in [9] were 650 nM and 110 nM, respectively.
Consider `COc1ccc(/C=C/C(=O)c2ccc(NC(=O)Cn3c(-c4ccc(OC)c(OC)c4)cc(-c4ccc(OC)c(OC)c4)c(C#N)c3=O)cc2)cc1` [IV], for which, in series [7], the 50% inhibitory concentration (IC50) was 58 nM. Further, in [8], the GI50 was 720 nM.

In general, IC50 refers to the midpoint of a concentration-inhibition curve. For orientation: GI50 means the concentration giving 50% growth inhibition.

The record behind these values is PMC10674657, “Quinazolin-4-one/3-cyanopyridin-2-one Hybrids as Dual Inhibitors of EGFR and BRAF^V600E: Design, Synthesis, and Antiproliferative Activity” (Pharmaceuticals, 2023).
